{"source": "patent US5885968A", "about": "“Triantennary cluster glycosides, their preparation and use” (Rijksuniversiteit te Leiden, priority 1992, dated 1999)", "key": {"[1]": {"molecular_target": "T1, Fuc/Gal receptor on the hepatic Kupffer cell (Rattus norvegicus, UniProt P10716)", "T1 construct": "Kupffer cells in DMEM medium, supplemented with 2% BSA and 2 mM CaCl2; endogenous in cells; host or cells: primary Kupffer cells of liver", "T1 sequence (P10716 1-550)": "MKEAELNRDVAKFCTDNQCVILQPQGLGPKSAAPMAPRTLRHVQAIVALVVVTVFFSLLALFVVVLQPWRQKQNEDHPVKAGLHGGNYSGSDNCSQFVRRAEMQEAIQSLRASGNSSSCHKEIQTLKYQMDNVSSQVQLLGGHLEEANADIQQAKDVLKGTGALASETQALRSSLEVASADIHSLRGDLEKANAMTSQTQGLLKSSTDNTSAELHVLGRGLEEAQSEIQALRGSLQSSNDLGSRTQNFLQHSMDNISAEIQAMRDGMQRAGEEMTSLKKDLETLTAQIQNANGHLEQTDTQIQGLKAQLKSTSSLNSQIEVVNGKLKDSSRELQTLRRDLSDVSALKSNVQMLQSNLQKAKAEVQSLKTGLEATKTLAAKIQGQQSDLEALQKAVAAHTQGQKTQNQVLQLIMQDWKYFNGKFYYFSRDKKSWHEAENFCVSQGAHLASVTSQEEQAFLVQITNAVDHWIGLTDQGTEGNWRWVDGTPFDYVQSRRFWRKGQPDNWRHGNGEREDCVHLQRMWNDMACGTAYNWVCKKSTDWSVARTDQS", "assay": "Inhibition of 125I-Lac-LDL binding to Kupffer cells", "conditions": "4° C., 2 h", "method": "An idea of the specificity of cluster glycosides for the asialoglycoprotein receptor on the hepatic parenchymal cell can be obtained by comparing the affinity for this receptor with the affinity for the likewise galactose recognizing Fuc/Gal receptor on the hepatic Kupffer cell. […] To that end, Kupffer cells in DMEM medium, supplemented with 2% BSA and 2 mM CaCl2, are incubated at 4° C. for 2 h with 3 μg/ml ^125 I-Lac-LDL in the absence or presence of the compound, in a concentration range of 1 nM to 300 μM. After the incubation the binding of ^125 I-Lac-LDL to the Kupffer cells is determined in a manner identical to that for ^125 I-ASOR binding to liver parenchymal cells."}, "[2]": {"molecular_target": "T2, asialoglycoprotein receptor (Rattus norvegicus, UniProt P02706+P08290)", "T2 construct": "parenchymal cells isolated from rat liver; endogenous in cells; host or cells: primary parenchymal cells (hepatocytes) isolated from rat liver", "T2 sequence (P02706 1-284)": "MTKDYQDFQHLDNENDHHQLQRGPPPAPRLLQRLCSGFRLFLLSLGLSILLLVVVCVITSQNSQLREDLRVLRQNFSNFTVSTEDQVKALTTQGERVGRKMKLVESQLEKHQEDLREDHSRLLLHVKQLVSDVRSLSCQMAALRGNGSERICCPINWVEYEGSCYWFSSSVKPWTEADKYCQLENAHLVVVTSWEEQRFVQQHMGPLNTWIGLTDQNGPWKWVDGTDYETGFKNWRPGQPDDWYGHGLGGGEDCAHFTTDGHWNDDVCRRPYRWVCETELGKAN", "T2 sequence (P08290 1-301)": "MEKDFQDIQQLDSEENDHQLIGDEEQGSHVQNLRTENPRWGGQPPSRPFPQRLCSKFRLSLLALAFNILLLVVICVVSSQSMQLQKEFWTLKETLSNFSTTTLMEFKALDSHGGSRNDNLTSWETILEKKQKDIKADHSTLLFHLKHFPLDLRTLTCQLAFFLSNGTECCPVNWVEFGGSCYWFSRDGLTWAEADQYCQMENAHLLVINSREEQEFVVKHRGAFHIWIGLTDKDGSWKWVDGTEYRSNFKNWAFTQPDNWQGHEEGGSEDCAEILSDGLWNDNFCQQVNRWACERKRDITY", "assay": "Inhibition of binding of radiolabeled asialoorosomucoid to rat liver parenchymal cells", "conditions": "for Ki: rat liver parenchymal cells, labeled asialoorosomucoid", "description": "The affinity of cluster glycosides can be verified by means of binding studies. In them, it is considered to what extent the compounds are capable of inhibiting the binding of the radioisotopically labeled asioloorosomucoid to parenchymal cells isolated from rat liver according to a previously described procedure (ref 17). The sugar concentration at which inhibition arises is a measure of the affinity."}, "rats [3]": {"tested_on": "rats", "assay": "Serum cholesterol lowering after intravenous injection in rats", "type": "in vivo, rat", "conditions": "injection into vena penis, 0.056-0.56 mg, FIG. 3", "method": "This was verified as follows. Male rats (250-300 g) were anesthetized by means of ether, whereafter 500 gl PBS, having dissolved therein 0.56 mg, 0.18 mg, 0.056 mg or 0 mg TG(20 Å)-chol (formula 20) or 0.56 mg tris-glu-chol (formula 21): [drawing 19] was injected into the vena penis. At the times indicated in FIG. 3, blood samples of 300 μl were taken by means of orbital puncture. The blood samples were centrifuged (5 min; 1500 g) and the serum was used for a cholesterol assay by means of the CHOD-PAP kit of Boehringer Mannheim. 24 Hours after injection the rat was bled. The blood was centrifuged whereafter the serum was pipeted. Then the serum was subjected to gradient density ultracentrifugation and the various lipoprotein fractions were isolated: HDL (1.21<d<1.05), LDL (1.050<d<1.019), IDL (1.019<d<1.006) and VLDL (d<1.006). Finally, the total cholesterol concentrations of these lipoprotein fractions were assayed by means of the CHOD-PAP kit."}, "rats [4]": {"tested_on": "rats", "assay": "In vivo fate of lipoprotein (a) charged with glycolipid in rats", "parameters": "species or system rat", "conditions": "rats", "description": "The so prepared TG(20 Å)-chol (formula 20): [drawing 24] can also be used to direct apo(a) to the hepatic parenchymal cell. High levels of lp(a) are correlated with the occurence of coronary and vascular diseases. To date, an adequate clinical therapy to alleviate the pathogenesis is not available. To investigate whether TG(20 Å)C can be used to stimulate the hepatic uptake and processing of lp(a) this, isolated lp(a) was charged with TG(20 Å)-chol according to a procedure that is known per se and the in vivo behaviour of the particle was studied. Lp(a) (50 μg) in PBS was incubated at 20° C. for 30 min with 0, 5, 15 and 50 μg TG(20 Å) (-chol). This charge led to a changed behaviour of the apo(a) after intravenous injection into rats. This is illustrated in FIG. 8. […] On account of the high […] of TG(20 Å)-chol, very rapidly an exchange of this compound occurs between lp(a) and other lipoproteins and lipid compartments. This then leads to a stabilization of the lp(a) level in the bloodstream after a few minutes.\n^125 I-Lp(a) (50 μg) was mixed with 50 μg of TG(20 Å)C or TG(4 Å)C in 500 μl PBS. After 30 min at room temperature, the mixtures were injected into rats at a dose of 50 μg of apolipoprotein/kg body weight. Ten minutes after injection, parenchymal, endothelial and Kupffer cells were isolated from the liver and counted for radioactivity. Values are expressed as 10-3.% of the injected dose per mg of cellular protein and are means of 3 experiments ± s.e.m."}, "[5]": {"conditions": "cited from earlier work"}, "[6]": {"conditions": "read-out: Fuc-Gal receptor pKi (converted)"}, "[7]": {"conditions": "read-out: Asialoglycoprotein receptor Ki"}, "[8]": {"conditions": "read-out: Asialoglycoprotein receptor pKi (± S.E.) (converted)"}, "[9]": {"conditions": "125I-Lp(a) 50 μg + 50 μg glycolipid, 10 min after injection, mean ± s.e.m., 3 experiments"}}, "note": "Like-named read-outs stand apart in the source and are kept apart here.", "data": [{"compound": "COC(=O)CCCCC(=O)NCC(=O)NC(COCOCCOCCOCCOCCO[C@@H]1O[C@H](CO)[C@H](O)[C@H](O)[C@H]1O)(COCOCCOCCOCCOCCO[C@@H]1O[C@H](CO)[C@H](O)[C@H](O)[C@H]1O)COCOCCOCCOCCOCCO[C@@H]1O[C@H](CO)[C@H](O)[C@H](O)[C@H]1O", "note": "[Compound 15e]", "values": [{"measurement": "Ki", "setting": "[1]; read-out: Fuc-Gal receptor Ki", "value": "> 100", "unit": "µM"}, {"measurement": "Ki", "setting": "[1]; [6]", "value": "> 100", "unit": "µM"}, {"measurement": "Ki", "setting": "[2]; [7]", "value": 0.2, "unit": "µM"}, {"measurement": "Ki", "setting": "[2]; [8]", "value": 0.209, "unit": "µM"}]}, {"compound": "COC(=O)CCCCC(=O)NCC(=O)NC(COCOCCOCCO[C@@H]1O[C@H](CO)[C@H](O)[C@H](O)[C@H]1O)(COCOCCOCCO[C@@H]1O[C@H](CO)[C@H](O)[C@H](O)[C@H]1O)COCOCCOCCO[C@@H]1O[C@H](CO)[C@H](O)[C@H](O)[C@H]1O", "note": "[Compound 15d]", "values": [{"measurement": "Ki", "setting": "[1]; read-out: Fuc-Gal receptor Ki", "value": "> 100", "unit": "µM"}, {"measurement": "Ki", "setting": "[1]; [6]", "value": "> 100", "unit": "µM"}, {"measurement": "Ki", "setting": "[2]; [7]", "value": 11, "unit": "µM"}, {"measurement": "Ki", "setting": "[2]; [8]", "value": 11.2, "unit": "µM"}]}, {"compound": "COC(=O)CCCCC(=O)NCC(=O)NC(CO[C@@H]1O[C@H](CO)[C@H](O)[C@H](O)[C@H]1O)(CO[C@@H]1O[C@H](CO)[C@H](O)[C@H](O)[C@H]1O)CO[C@@H]1O[C@H](CO)[C@H](O)[C@H](O)[C@H]1O", "note": "[Compound 15a]", "values": [{"measurement": "Ki", "setting": "[1]; read-out: Fuc-Gal receptor Ki", "value": "> 30", "unit": "µM"}, {"measurement": "Ki", "setting": "[1]; [6]", "value": "> 31.6", "unit": "µM"}, {"measurement": "Ki", "setting": "[2]; [7]", "value": 390, "unit": "µM"}, {"measurement": "Ki", "setting": "[2]; [8]", "value": 389, "unit": "µM"}]}, {"compound": "COC(=O)CCCCC(=O)NCC(=O)NC(COCOCCCO[C@@H]1O[C@H](CO)[C@H](O)[C@H](O)[C@H]1O)(COCOCCCO[C@@H]1O[C@H](CO)[C@H](O)[C@H](O)[C@H]1O)COCOCCCO[C@@H]1O[C@H](CO)[C@H](O)[C@H](O)[C@H]1O", "note": "[Compound 15c]", "values": [{"measurement": "Ki", "setting": "[1]; read-out: Fuc-Gal receptor Ki", "value": "> 100", "unit": "µM"}, {"measurement": "Ki", "setting": "[1]; [6]", "value": "> 100", "unit": "µM"}, {"measurement": "Relative affinity for the ASGPr (in words)", "setting": "[2]; from Table 2", "value": "slightly higher affinity than TG(13 Å)"}, {"measurement": "Ki", "setting": "[2]; [7]", "value": 1.2, "unit": "µM"}, {"measurement": "Ki", "setting": "[2]; [8]", "value": 1.23, "unit": "µM"}]}, {"compound": "CC(C)CCC[C@@H](C)[C@H]1CC[C@H]2[C@@H]3CC=C4C[C@@H](OC(=O)CCC(=O)NCC(=O)NC(CO[C@@H]5O[C@H](CO)[C@@H](O)[C@H](O)[C@H]5O)(CO[C@@H]5O[C@H](CO)[C@@H](O)[C@H](O)[C@H]5O)CO[C@@H]5O[C@H](CO)[C@@H](O)[C@H](O)[C@H]5O)CC[C@]4(C)[C@H]3CC[C@]12C", "note": "[tris-glu-chol, reference compound]", "values": [{"measurement": "Total serum cholesterol level", "setting": "rats [3]", "value": "does not lead to a change in the cholesterol level"}]}, {"compound": "CC(C)CCC[C@@H](C)[C@H]1CC[C@H]2[C@@H]3CC=C4C[C@@H](OC(=O)CCC(=O)NCC(=O)NC(CO[C@@H]5O[C@H](CO)[C@H](O)[C@H](O)[C@H]5O)(CO[C@@H]5O[C@H](CO)[C@H](O)[C@H](O)[C@H]5O)CO[C@@H]5O[C@H](CO)[C@H](O)[C@H](O)[C@H]5O)CC[C@]4(C)[C@H]3CC[C@]12C", "note": "[TG(4 Å)C, reference compound]", "values": [{"measurement": "Contribution to hepatic uptake of Lp(a), EC (endothelial cells)", "setting": "rats [4]; [9]", "value": "10.4 ± 3", "unit": "%"}, {"measurement": "Contribution to hepatic uptake of Lp(a), KC (Kupffer cells)", "setting": "rats [4]; [9]", "value": "80.3 ± 3", "unit": "%"}, {"measurement": "Liver cell type location of charged lp(a) (in words)", "setting": "rats [4]", "value": "mainly located in the Kupffer cell"}]}, {"compound": "COC(=O)CCCCC(=O)NCC(=O)NC(COCOCCO[C@@H]1O[C@H](CO)[C@H](O)[C@H](O)[C@H]1O)(COCOCCO[C@@H]1O[C@H](CO)[C@H](O)[C@H](O)[C@H]1O)COCOCCO[C@@H]1O[C@H](CO)[C@H](O)[C@H](O)[C@H]1O", "note": "[Compound 15b]", "values": [{"measurement": "Ki", "setting": "[1]; read-out: Fuc-Gal receptor Ki", "value": "> 100", "unit": "µM"}, {"measurement": "Ki", "setting": "[1]; [6]", "value": "> 100", "unit": "µM"}, {"measurement": "Ki", "setting": "[2]; [7]", "value": 19, "unit": "µM"}, {"measurement": "Ki", "setting": "[2]; [8]", "value": 19.1, "unit": "µM"}]}, {"compound": "CC(C)CCC[C@@H](C)[C@H]1CC[C@H]2[C@@H]3CC=C4C[C@@H](OC(=O)CCC(=O)NCC(=O)NC(CO[C@@H]5O[C@H](CO)[C@H](O)[C@H](O)[C@H]5O)(CO[C@@H]5O[C@H](CO)[C@H](O)[C@H](O)[C@H]5O)CO[C@@H]5O[C@H](CO)[C@H](O)[C@H](O)[C@H]5O)CC[C@]4(C)[C@H]3CC[C@]12C", "note": "[tris-gal-chol]", "values": [{"measurement": "Removal of cholesterol from the bloodstream and liver uptake", "setting": "[5]", "value": "capable of irreversibly removing cholesterol from the bloodstream and inducing cholesterol uptake by the liver"}, {"measurement": "Potency as hypolipidemic agent", "setting": "[5]; high doses necessary", "value": "low"}, {"measurement": "Route of LDL removal after injection", "setting": "[5]; in vivo", "value": "via the Fuc/Gal receptors on hepatic Kupffer cells"}]}]}
